Results taken from US10100079B2, “Progesterone-cationic lipid hybrid as anticancer agent and the process of synthesis thereof” (Council of Scientific & Industrial Research, priority 2016, dated 2018).
Read-outs that look alike come from different tables or passages of the source.

What was measured:
OVCAR-3 = assay: MTT cytotoxicity assay, OVCAR-3; assay type: cell-based; conditions: Homo sapiens, read-out: IC50 OVCAR-3
Method: (§1) All cells were grown into mycoplasma free condition. […] All cells were grown up to 75-85% confluency after which cells were trypsinized, counted and seeded, in 96-well plates for cell viability studies, 6-well plates for apoptosis studies, 60 mm dish for cell cycle studies and in 25 cm^2 or 75 cm^2 tissue culture flasks for Western blot studies. The primary stock of the cationic progesterone molecules were made in cell culture grade DMSO and from that secondary stock was prepared by serial dilution with cell culture grade DMSO. The final working concentrations were prepared by diluting the secondary stock in cell culture media keeping the DMSO concentration in working solution below 0.2% with respect to cell culture medium. […] For this assay, 12-18 h before treatment cells were plated in 96-well plate at 5000 cells/well density. […] After completion of the treatment, 10 μL of MTT solution (5 mg/mL) was added in each well and incubated for 4 h. Then the media was removed carefully, and the reduced MTT was dissolved in 1:1 (v/v) DMSO/Methanol and absorbance was measured using multimode reader (Synergy H1, BioTek). Results were represented as percentage of viability={[A550(treated cells)−background]/[A550(untreated cells)−background]}×100. The result was summarized and provided as IC50 table in Table 1.

B16F10 = assay: MTT cytotoxicity assay, B16F10; assay type: cell-based, murine
Method: as §1

MDA-MB-231 = assay: MTT cytotoxicity assay, MDA-MB-231; assay type: cell-based, human
Method: as §1

NIH-3T3 = assay: MTT cytotoxicity assay, NIH-3T3; assay type: cell-based, murine; conditions: Mus musculus, read-out: IC50 NIH-3T3
Method: as §1

COS-1 = assay: MTT cytotoxicity assay, COS-1; assay type: cell-based; conditions: Chlorocebus aethiops, read-out: IC50 COS-1
Method: as §1

[1] = test system: cancer cells T47D, OVCAR-3, MDA-MB-231, MCF-7 and B16F10; assay: MTT viability, all tested cancer cells (combination treatment study, FIG. 1A); assay type: cell-based; conditions: 48 h; for toxicity in cancer cells: 10 μM (1+10C: 10 μM+10 μM)
Method: FIG. 1A: The viability studies of cancer cells T47D, OVCAR-3, MDA-MB-231, MCF-7 and B16F10 after 48 h of continuous treatment with compound 1 (10 μM), 10C [cationic lipid control molecule not containing progesterone moiety]
(§2) Cytotoxicity assay of the different compounds were carried out by using 3-(4,5-dimethylthiazol-2-yl)-2,5-diphenyltetrazolium bromide (MTT). For this assay, 12-18 h before treatment cells were plated in 96-well plate at 5000 cells/well density. After incubation cells were treated continuously for 48 h with respective compounds at different concentration (2.5 μM-40 μM). After completion of the treatment, 10 μL of MTT solution (5 mg/mL) was added in each well and incubated for 4 h. Then the media was removed carefully, and the reduced MTT was dissolved in 1:1 (v/v) DMSO/Methanol and absorbance was measured using multimode reader (Synergy H1, BioTek). Results were represented as percentage of viability={[A550(treated cells)−background]/[A550(untreated cells)−background]}×100. The result was summarized and provided as IC50 table in Table 1.
(§3) For combination treatment effect, cells were plated in 96 well plates at 5000 cells/well. […] Following 48 h of treatment cell viability was measured following above mentioned MTT study.

[2] = test system: non-cancer cells CHO, COS-1 and NIH-3T3; assay: MTT viability, tested non-cancer cells (combination treatment study, FIG. 1B); assay type: cell-based; conditions: 48 h; for toxicity in non-cancer cells: 10 μM (1+10C: 10 μM+10 μM)
Method: FIG. 1B: The viability studies of non-cancer cells CHO, COS-1 and NIIH-3T3 after 48 h of continuous treatment with compound 1 (10 μM), 10C [cationic lipid control molecule not containing progesterone moiety]
as §2, §3

[3] = test system: MDA-MB-231 (PgR-negative); assay: Cell cycle assay by flow cytometry (PI), MDA-MB-231; assay type: cell-based, human; conditions: MDA-MB-231, 10 μM, 24 h
Method: To measure the cellular DNA content, cell cycle assay was carried out. In this assay, first cells were synchronized at early S-phase by double thymidine blocking. When cell confluency was reached around 25-30% in 60 mm dish, cells were treated with 2 mM thymidine, diluted in 10% FBS containing DMEM, for 18 h to block cells at early S-phase. To release the blocking, media was discarded and washed with 1×PBS. Then the cells were incubated with fresh cell culture media containing 10% FBS for 9 h. After releasing, second blocking was done with 2 mM thymidine containing media for 17 h. After second blocking cells were released by discarding the thymidine supplemented media and kept in fresh media. All the respective treatments for cell cycle study were done after 2 h of second release.
S-phase synchronized cells were either kept untreated or treated with compound 1 (10 μM) and 6c (10 μM) for 24 h. Cells from different treatment groups were harvested, washed with 1×PBS, and fixed with 70% ethanol and kept at −20° C. for overnight. Then the ethanol was removed and washed with 1×PBS. […] After incubation cells were collected by centrifugation, washed with 1×PBS, re-suspended in 500 μL 1×PBS, and data was recorded using flow cytometer (FACS Canto II, Becton-Dickinson, San Jose, Calif., USA) and data were analyzed with FACS Diva software. […]

SMILES | IC50 (OVCAR-3; OVCAR-3, MTT, 48 h continuous treatment) [µM] | IC50 (B16F10; Mus musculus, B16-F10, MTT, 48 h continuous treatment, read-out: IC50 B16F10) [µM] | IC50 (MDA-MB-231; Homo sapiens, MDA-MB-231, MTT, 48 h continuous treatment, read-out: IC50 MDA-MB-231) [µM] | IC50 (NIH-3T3; NIH3T3, MTT, 48 h continuous treatment, non-cancer cell) [µM] | IC50 (COS-1; COS-1, MTT, 48 h continuous treatment, non-cancer cell) [µM] | toxicity in cancer cells [1] | toxicity in non-cancer cells [2] | total cell population in G2/M phase [3] [%] | IC50 (OVCAR-3; OVCAR-3, 48 h) [µM] | IC50 (B16F10; Mus musculus, B16-F10, 48 h, read-out: IC50 B16F10, MTT, 48 h continuous treatment) [µM] | IC50 (B16F10; read-out: IC50 B16F10, MTT, 48 h continuous treatment) [µM] | IC50 (MDA-MB-231; Homo sapiens, MDA-MB-231, 48 h, read-out: IC50 MDA-MB-231, MTT, 48 h continuous treatment) [µM] | IC50 (MDA-MB-231; read-out: IC50 MDA-MB-231, MTT, 48 h continuous treatment) [µM] | IC50 (NIH-3T3; NIH3T3, 48 h) [µM] | IC50 (COS-1; COS-1, 48 h) [µM] | cell killing in all tested cancer cells ([1]; 2.5 μM-40 μM) | toxicity towards tested non-cancer cells ([2]; 2.5 μM-40 μM)
CC(=O)[C@H]1CC[C@H]2[C@@H]3CCC4=CC(=O)CC[C@]4(C)[C@H]3CC[C@]12C [Compound 1, Progesterone] | > 20 | > 20 | > 20 | > 20 | > 20 | did not impart any significant toxicity | did not impart any significant toxicity | 21 | – | – | – | – | – | – | – | – | –
CCCCCCCCCC[N+](C)(CCCCCCCCCC)CCNC(=O)CCC(=O)O[C@@H](C)[C@H]1CCC2C3CCC4=CC(=O)CC[C@]4(C)C3CC[C@@]21C (stereo partly drawn) [Compound 6c, N-decyl-N-(2-(4-((1S)-1-((10R,13S,17S)-10,13-dimethyl-3-oxo-2,3,6,7,8,9,10,11,12,13,14, 15,16,17-tetradecahydro-1H-cyclopenta[a]phenanthren-17-yl)ethoxy)-4-oxobutanamido)ethyl)-N-methyldecan-1-aminium chloride] | – | – | – | – | – | significant toxicity only in cancer cells | not in non-cancerous cell | 34 | 4.48 ± 0.23 | 3.63 ± 0.16 | 6.67 ± 0.27 | 6.67 ± 0.27 | 3.63 ± 0.16 | > 20 | > 20 | significant amount of cell killing | largely non-toxic
